Reference: paper PMC6104039 (Nature Communications, 2018)
“Also recorded” adds a separate entry of the source.

System: HEK293 cells
Assay: Detection of the phosphate of the compound in cultured cells, LC-MS/MS
Format: in vitro ADME
Conditions: 1 µM, 2 h
Description: LC-MS/MS was performed on a TSQ Quantum Access triple quadrupole mass spectrometer in positive ion mode, coupled to an Accela UPLC system (Thermo Scientific). Extracts (20 μL) were separated on a 2 × 100 mm Eclipse XDB-C8 column with 1.8 μm particle size (Agilent Technologies), using a 7.5 min binary HPLC gradient: 0 min, 70% B ([…]); 1.5 min, 70% B; 3.5 min, 95% B; 4 min, 95% B; 4.5 min, 70% B; 7.5 min 70% B. Mobile phase A: 2 mM ammonium formate/1% formic acid in water; mobile phase B: 1 mM ammonium formate/1% formic acid in methanol. The flow rate was 0.4 mL min^−1, increasing to 0.5 mL min^−1 from 5–7 min, and column oven 30 °C. […] Visualisation and quantification of peaks was performed using Thermo Fisher’s XCalibur software v2.2.
Supplementary Figure 8. P053 is not phosphorylated in situ or in vivo. (a-b) HEK293 cells […]
LC-MS/MS analysis. Chromatograms for (a) FTY720 and its phosphate, and (b) P053 and its putative phosphate are shown. […]
mg/kg/day for 6 weeks, corresponding to a plasma concentration of ~300 nM. No peak is […]
(1 picture or pasted object on this page, not shown here)

Q: For `CCCCCCCCc1ccc(CCC(N)(CO)CO)cc1` [FTY720, reference compound], which “phosphate of the compound in cultured HEK293 cells” value is on record?
A: definitive peak; also recorded: clearly detected
